Results on 35 compounds are retold here after patent US20260308159A1, “BICYCLIC HETEROARYLAMIDES HAVING GPR68 MODULATING ACTIVITY” (RECURSION PHARMACEUTICALS, INC., priority 2023, published 2026).

pIC50: −log10 of the molar value. Like-named read-outs stand apart in the source and are kept apart here.

The test has as its target T1, human GPR68 (Homo sapiens, UniProt Q15743).
T1 construct: encoding full-length human GPR68 (uniprot ID: Q15743); expressed in transfected cells; host or cells: HEK293T
Kind of test: GPR68 Biochemical Assay (Promega GloSensor cAMP assay, GPR68 antagonism). The test is classed as cell-based. The following applies: 15 min. The method in brief: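 HEK293T cells transiently co-transfected with full-length human GPR68 and GloSensor plasmids, preloaded 60 min with GloSensor substrate in pH 8.0 buffer. Compounds (9-point half-log series, top 50 μM final, 0.5% DMSO) added with pH 5.5 buffer (~EC80-90 stimulation); luminescence read after 15 min at room temperature. IC50 from sigmoidal fit of % inhibition.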

Where [1] appears, read: HEK293T cells transiently expressing hGPR68, antagonism of pH 5.5 stimulated cAMP, read-out: hGPR68 IC50.

T1 sequence (Q15743 whole entry): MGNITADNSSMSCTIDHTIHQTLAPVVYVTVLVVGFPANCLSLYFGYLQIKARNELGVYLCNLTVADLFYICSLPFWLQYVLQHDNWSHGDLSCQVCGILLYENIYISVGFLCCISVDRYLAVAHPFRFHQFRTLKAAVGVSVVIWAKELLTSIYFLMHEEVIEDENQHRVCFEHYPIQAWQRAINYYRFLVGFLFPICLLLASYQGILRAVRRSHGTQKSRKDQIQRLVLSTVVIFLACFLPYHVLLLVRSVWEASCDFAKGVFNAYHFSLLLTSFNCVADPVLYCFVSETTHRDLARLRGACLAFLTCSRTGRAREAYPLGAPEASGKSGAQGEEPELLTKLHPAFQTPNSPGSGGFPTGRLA

One may read the pIC50 as −log10 of the IC50, conventionally taken in molar units. Turning to `COCc1nn2c(C(=O)NC3CCC(C)(C)c4ccccc43)ccnc2c1C(N)=O` (centres unmarked) [Compound 186, N7-(4,4-dimethyltetralin-1-yl)-2-(methoxymethyl)pyrazolo[1,5-a]pyrimidine-3,7-dicarboxamide], the pIC50 under setting [1] was 5.30 to 6.30.

Consider `COCc1nn2c(C(=O)NC3CCc4nccn4C3)ccnc2c1C(N)=O` (centres unmarked) [Compound 187, 2-(methoxymethyl)-N7-(5,6,7,8-tetrahydroimidazo[1,2-a]pyridin-6-yl)pyrazolo[1,5-a]pyrimidine-3,7-dicarboxamide], for which, under setting [1], the pIC50 is 5.30 to 6.30.

For the compound `COCc1nn2c(C(=O)NC3CCc4cncn4C3)ccnc2c1C(N)=O` (centres unmarked) [Compound 188, 2-(methoxymethyl)-N7-(5,6,7,8-tetrahydroimidazo[1,5-a]pyridin-6-yl)pyrazolo[1,5-a]pyrimidine-3,7-dicarboxamide], the pIC50 under setting [1] is 5.30 to 6.30.

Take `COCc1nn2c(C(=O)NC3CCS(=O)(=O)c4ccccc43)ccnc2c1C(N)=O` (centres unmarked) [Compound 189, N7-(1,1-dioxo-3,4-dihydro-2H-thiochromen-4-yl)-2-(methoxymethyl)pyrazolo[1,5-a]pyrimidine-3,7-dicarboxamide]: the pIC50 under setting [1] is greater than 7.30.

As for `COCc1nn2c(C(=O)NC3CCc4ncsc4C3)ccnc2c1C(N)=O` (centres unmarked) [Compound 190, 2-(methoxymethyl)-N7-(4,5,6,7-tetrahydro-1,3-benzothiazol-6-yl)pyrazolo[1,5-a]pyrimidine-3,7-dicarboxamide], under setting [1], the pIC50 was 6.30 to 7.30.

Regarding `COCc1nn2c(C(=O)NC3COc4c(F)cc(F)cc43)ccnc2c1C(N)=O` (centres unmarked) [Compound 191, N7-(5,7-difluoro-2,3-dihydrobenzofuran-3-yl)-2-(methoxymethyl)pyrazolo[1,5-a]pyrimidine-3,7-dicarboxamide], under setting [1], the pIC50 is greater than 7.30.

Take `COCc1nn2c(C(=O)NC3COc4c(F)cccc43)ccnc2c1C(N)=O` (centres unmarked) [Compound 192, N7-(7-fluoro-2,3-dihydrobenzofuran-3-yl)-2-(methoxymethyl)pyrazolo[1,5-a]pyrimidine-3,7-dicarboxamide]: the pIC50 under setting [1] was greater than 7.30.

As to `COCc1nn2c(C(=O)N[C@H]3CCCc4ccccc43)ccnc2c1C(N)=O` [Compound 193, 2-(methoxymethyl)-N7-[(1S)-tetralin-1-yl]pyrazolo[1,5-a]pyrimidine-3,7-dicarboxamide], the pIC50 under setting [1] is greater than 7.30.

Turning to `COCc1nn2c(C(=O)NC3Cc4ccc(F)cc4C3)ccnc2c1C(N)=O` (centres unmarked) [Compound 194, N7-(5-fluoroindan-2-yl)-2-(methoxymethyl)pyrazolo[1,5-a]pyrimidine-3,7-dicarboxamide], under setting [1], the pIC50 was greater than 7.30.

For the compound `COCc1nn2c(C(=O)NC3Cc4cc(F)c(F)cc4C3)ccnc2c1C(N)=O` [Compound 195, N7-(5,6-difluoroindan-2-yl)-2-(methoxymethyl)pyrazolo[1,5-a]pyrimidine-3,7-dicarboxamide], the pIC50 under setting [1] is greater than 7.30.

In the case of `COCc1nn2c(C(=O)NC3COc4ccc(F)cc4C3)ccnc2c1C(N)=O` (centres unmarked) [Compound 196, N7-(6-fluorochroman-3-yl)-2-(methoxymethyl)pyrazolo[1,5-a]pyrimidine-3,7-dicarboxamide], the pIC50 under setting [1] was greater than 7.30.

Take `COCc1nn2c(C(=O)NCc3ccc(O)cc3)ccnc2c1C(N)=O` [Compound 197, N7-[(4-hydroxyphenyl)methyl]-2-(methoxymethyl)pyrazolo[1,5-a]pyrimidine-3,7-dicarboxamide]: under setting [1], the pIC50 was 5.30 to 6.30.

With `COCc1nn2c(C(=O)N[C@H]3CC(C)(C)c4ccccc43)ccnc2c1C(N)=O` [Compound 198, 2-(methoxymethyl)-N7-[(1S)-3,3-dimethylindan-1-yl]pyrazolo[1,5-a]pyrimidine-3,7-dicarboxamide], the pIC50 under setting [1] is 6.30 to 7.30.

As for `COCc1nn2c(C(=O)NCc3ccccc3OC)ccnc2c1C(N)=O` [Compound 199, 2-(methoxymethyl)-N7-[(2-methoxyphenyl)methyl]pyrazolo[1,5-a]pyrimidine-3,7-dicarboxamide], the pIC50 under setting [1] is 6.30 to 7.30.

For `COCc1nn2c(C(=O)N[C@@H]3Cc4ccccc4[C@@H]3C)ccnc2c1C(N)=O` [Compound 201], the pIC50 under setting [1] is greater than 7.30.

As for `CCOCc1nn2c(C(=O)NC3Cc4ccccc4C3)ccnc2c1C(N)=O` [Compound 202, 2-(ethoxymethyl)-N7-indan-2-yl-pyrazolo[1,5-a]pyrimidine-3,7-dicarboxamide], the pIC50 under setting [1] is greater than 7.30.

With `NC(=O)c1c(C2CCCO2)nn2c(C(=O)N[C@H]3C[C@@H](OC(F)(F)F)C3)ccnc12` (stereo partly drawn) [Compound 203, 2-tetrahydrofuran-2-yl-N7-[cis-3-(trifluoromethoxy)cyclobutyl]pyrazolo[1,5-a]pyrimidine-3,7-dicarboxamide], the pIC50 under setting [1] is 6.30 to 7.30.

With `NC(=O)c1c(CO)nn2c(C(=O)NC3Cc4ccccc4C3)ccnc12` [Compound 204, 2-(hydroxymethyl)-N7-indan-2-yl-pyrazolo[1,5-a]pyrimidine-3,7-dicarboxamide], the pIC50 under setting [1] was 6.30 to 7.30.

For the compound `CCOCc1nn2c(C(=O)N[C@H]3C[C@@H](OC(F)(F)F)C3)ccnc2c1C(N)=O` [Compound 205, 2-(ethoxymethyl)-N7-[cis-3-(trifluoromethoxy)cyclobutyl]pyrazolo[1,5-a]pyrimidine-3,7-dicarboxamide], under setting [1], the pIC50 was 6.30 to 7.30.

`COCc1nn2c(C(=O)N[C@H]3C[C@@H](OC(F)(F)F)C3)cc(C)nc2c1C(N)=O` [Compound 206, 2-(methoxymethyl)-5-methyl-N7-[cis-3-(trifluoromethoxy)cyclobutyl]pyrazolo[1,5-a]pyrimidine-3,7-dicarboxamide]: the pIC50 under setting [1] is 6.30 to 7.30.

For the compound `NC(=O)c1c(CO)nn2c(C(=O)NC3CC(F)(F)C3)ccnc12` [Compound 207, N7-(3,3-difluorocyclobutyl)-2-(hydroxymethyl)pyrazolo[1,5-a]pyrimidine-3,7-dicarboxamide], the pIC50 under setting [1] is 5.30 to 6.30.

`NC(=O)c1c(C2CC2)nc2c(C(=O)NC3Cc4cscc4C3)ccnn12` [Compound 208, 2-cyclopropyl-N8-(5,6-dihydro-4H-cyclopenta[c]thiophen-5-yl)imidazo[1,2-b]pyridazine-3,8-dicarboxamide]: under setting [1], the pIC50 is greater than 7.30.

Regarding `NC(=O)c1c(C2CC2)nc2c(C(=O)NC3CC(F)(F)c4ccccc43)ccnn12` (centres unmarked) [Compound 209, 2-cyclopropyl-N8-(3,3-difluoroindan-1-yl)imidazo[1,2-b]pyridazine-3,8-dicarboxamide], the pIC50 under setting [1] is greater than 7.30.

Regarding `NC(=O)c1c(C2CC2)nc2c(C(=O)NC3Cc4ccccc43)ccnn12` (centres unmarked) [Compound 210, N8-(7-bicyclo[4.2.0]octa-1,3,5-trienyl)-2-cyclopropyl-imidazo[1,2-b]pyridazine-3,8-dicarboxamide], under setting [1], the pIC50 is greater than 7.30.

`NC(=O)c1c(C2CC2)nc2c(C(=O)N[C@H]3CCOc4cc(F)ccc43)ccnn12` [Compound 211, 2-cyclopropyl-N8-[(4S)-7-fluorochroman-4-yl]imidazo[1,2-b]pyridazine-3,8-dicarboxamide]: under setting [1], the pIC50 is greater than 7.30.

In the case of `COCc1nc2c(C(=O)NC3CCC(F)(F)CC3)ncnn2c1C(N)=O` [Compound 212, N4-(4,4-difluorocyclohexyl)-6-(methoxymethyl)imidazo[2,1-f][1,2,4]triazine-4,7-dicarboxamide], the pIC50 under setting [1] was 6.30 to 7.30.

Regarding `CC(C)(O)c1nn2c(C(=O)NC3CC(F)(F)C3)ccnc2c1C(N)=O` [Compound 213, N7-(3,3-difluorocyclobutyl)-2-(1-hydroxy-1-methyl-ethyl)pyrazolo[1,5-a]pyrimidine-3,7-dicarboxamide], the pIC50 (hGPR68 IC50, HEK293T cells transiently expressing hGPR68, antagonism of pH 5.5 stimulated cAMP) was 6.30 to 7.30.

On to `CSCc1nn2c(C(=O)NC3Cc4ccccc4C3)ccnc2c1C(N)=O` [Compound 214, N7-indan-2-yl-2-(methylsulfanylmethyl)pyrazolo[1,5-a]pyrimidine-3,7-dicarboxamide], for which the pIC50 under setting [1] was greater than 7.30.

`CS(=O)(=O)Cc1nn2c(C(=O)NC3Cc4ccccc4C3)ccnc2c1C(N)=O` [Compound 215, N7-indan-2-yl-2-(methylsulfonylmethyl)pyrazolo[1,5-a]pyrimidine-3,7-dicarboxamide]: under setting [1], the pIC50 is 6.30 to 7.30.

Consider `NC(=O)c1c(COC2CC2)nn2c(C(=O)N[C@H]3C[C@@H](OC(F)(F)F)C3)ccnc12` [Compound 216, 2-(cyclopropoxymethyl)-N7-[cis-3-(trifluoromethoxy)cyclobutyl]pyrazolo[1,5-a]pyrimidine-3,7-dicarboxamide], for which the pIC50 under setting [1] was greater than 7.30.

Turning to `CSCc1nn2c(C(=O)N[C@H]3C[C@@H](OC(F)(F)F)C3)ccnc2c1C(N)=O` [Compound 217, 2-(methylsulfanylmethyl)-N7-[cis-3-(trifluoromethoxy)cyclobutyl]pyrazolo[1,5-a]pyrimidine-3,7-dicarboxamide], the pIC50 under setting [1] is greater than 7.30.

In the case of `COCc1nc2c(C(=O)NC3CCC(F)(F)CC3)cc(C)nn2c1C(N)=O` [Compound 218, N8-(4,4-difluorocyclohexyl)-2-(methoxymethyl)-6-methyl-imidazo[1,2-b]pyridazine-3,8-dicarboxamide], the pIC50 under setting [1] was 6.30 to 7.30.

On to `COCc1nc2c(C(=O)N[C@@H]3CCS(=O)(=O)c4ccccc43)ccnn2c1C(N)=O` [Compound 219, 2-(methoxymethyl)-N8-[(4R)-1,1-dioxo-3,4-dihydro-2H-thiochromen-4-yl]imidazo[1,2-b]pyridazine-3,8-dicarboxamide], for which the pIC50 under setting [1] was greater than 7.30.

Take `COCc1nc2c(C(=O)N[C@H]3CCS(=O)(=O)c4ccccc43)ccnn2c1C(N)=O` [Compound 220, 2-(methoxymethyl)-N8-[(4S)-1,1-dioxo-3,4-dihydro-2H-thiochromen-4-yl]imidazo[1,2-b]pyridazine-3,8-dicarboxamide]: the negative-log IC50 (pIC50) under setting [1] is 6.30 to 7.30.

For the compound `COCc1nc2c(C(=O)NC3CCS(=O)(=O)c4ccccc43)ccnn2c1C(N)=O` (centres unmarked) [Compound 221, N8-(1,1-dioxo-3,4-dihydro-2H-thiochromen-4-yl)-2-(methoxymethyl)imidazo[1,2-b]pyridazine-3,8-dicarboxamide], the pIC50 under setting [1] was 6.30 to 7.30.
